Reference: patent US20160046597A1, “RORC2 INHIBITORS AND METHODS OF USE THEREOF” (PFIZER INC., priority 2013, published 2016)

The molecules below were run against T1, RORC2 ligand binding domain (6-His-RORC2 LBD) (Homo sapiens, UniProt P51449) (assay: Co-activator recruitment by TR-FRET (RORC2 FRET)). Conditions: 6.3 nM RORC2 LBD, 200 nM SRC1-2 coactivator peptide, 3 hours room temperature.
T1 construct: made in house; host or cells: E. coli
T1 sequence (P51449 269-508 limits assumed): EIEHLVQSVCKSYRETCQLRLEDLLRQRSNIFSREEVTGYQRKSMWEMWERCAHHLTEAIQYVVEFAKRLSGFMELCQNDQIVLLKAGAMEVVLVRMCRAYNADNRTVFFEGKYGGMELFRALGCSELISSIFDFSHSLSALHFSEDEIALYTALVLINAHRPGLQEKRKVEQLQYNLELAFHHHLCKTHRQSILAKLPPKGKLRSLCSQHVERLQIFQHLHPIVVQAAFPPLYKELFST
Assay type: biochemical
Text: The activity of compound of the invention can be determined by a co-activator recruitment by TR-FRET (time-resolved fluorescence resonance energy transfer) assay. […] Due to the long lasting fluorescence emission of Europium, the non-specific, short-lived fluorescence is time-resolved (TR) from the fluorescence of interest. Inhibitors of the interaction of receptor and coactivator peptide are detected by a decrease in TR-FRET signal.
Specifically, in one embodiment the aforementioned assay was performed as outlined below. The assay was carried out in black polystyrene, 384-well plates in a total assay volume of 50.5 μL. The assay buffer contained 50 mM TRIS-HCL pH 7.5, 1 mM NaCl, 2 mM MgCl2, 0.5 mg/mL bovine serum albumin, and 5 mM dithiothreitol.

Row | IC50 [nM] | Compound
1 | 17.9 | CC(C)CC(=O)N1CCC(c2cn(C)c3ccc(NC(=O)c4cccc(C#N)c4)cc23)CC1 [Example 2, 3-cyano-N-(1-methyl-3-(1-(3-methylbutanoyl)piperidin-4-yl)-1H-indol-5-yl)benzamide]
2 | 387 | CC[C@H](C)[C@H](O)C(=O)N1CCC(c2cn(C)c3ccc(NC(=O)c4cccc(C#N)c4)cc23)CC1 [Example 3, 3-cyano-N-(3-(1-((2S,3S)-2-hydroxy-3-methylpentanoyl)piperidin-4-yl)-1-methyl-1H-indol-5-yl)benzamide]
3 | 590 | CC(C)C[C@H](O)C(=O)N1CCC(c2cn(C)c3ccc(NC(=O)c4cccc(C#N)c4)cc23)CC1 [Example 4, 3-cyano-N-(3-(1-((2S)-2-hydroxy-4-methylpentanoyl)piperidin-4-yl)-1-methyl-1H-indol-5-yl)benzamide]
4 | 106 | Cn1cc(C2CCN(C(=O)[C@H]3CC[C@@H](O)CC3)CC2)c2cc(NC(=O)c3cccc(C#N)c3)ccc21 [Example 5, 3-cyano-N-(3-{1-[(cis-4-hydroxycyclohexyl)carbonyl]piperidin-4-yl}-1-methyl-1H-indol-5-yl)benzamide]
5 | 34.6 | Cn1nccc1C(=O)N1CCC(c2cn(C)c3ccc(NC(=O)c4cc(C#N)ccn4)cc23)CC1 [Example 11, 4-cyano-N-(1-methyl-3-{1-[(1-methyl-1H-pyrazol-5-yl)carbonyl]piperidin-4-yl}-1H-indol-5-yl)pyridine-2-carboxamide]
6 | 1440 | Cn1cc(C2CCN(C(=O)c3cccc(O)n3)CC2)c2cc(NC(=O)c3cc(C#N)ccn3)ccc21 [Example 21, 4-cyano-N-(3-{1-[(6-hydroxypyridin-2-yl)carbonyl]piperidin-4-yl}-1-methyl-1H-indol-5-yl)pyridine-2-carboxamide]
7 | 384 | Cn1cc(C2CCN(C(=O)C(C)(C)CO)CC2)c2cc(NC(=O)c3cc(C#N)ccn3)ccc21 [Example 22, 4-cyano-N-{3-[1-(3-hydroxy-2,2-dimethylpropanoyl)piperidin-4-yl]-1-methyl-1H-indol-5-yl}pyridine-2-carboxamide]
8 | 334 | Cn1cc(C2CCN(C(=O)C(O)C(F)(F)F)CC2)c2cc(NC(=O)c3cc(C#N)ccn3)ccc21 (stereo not shown) [Example 23, 4-cyano-N-{1-methyl-3-[1-(3,3,3-trifluoro-2-hydroxypropanoyl)piperidin-4-yl]-1H-indol-5-yl}pyridine-2-carboxamide]
9 | 88.1 | CC(C)C(O)C(=O)N1CCC(c2cn(C)c3ccc(NC(=O)c4cc(C#N)ccn4)cc23)CC1 (stereo not shown) [Example 28, 4-cyano-N-{3-[1-(2-hydroxy-3-methylbutanoyl)piperidin-4-yl]-1-methyl-1H-indol-5-yl}pyridine-2-carboxamide]
10 | 7.6 | Cn1cc(C2CCN(C(=O)CC3CC3)CC2)c2cc(NC(=O)c3cc(C#N)ccn3)ccc21 [Example 33, 4-cyano-N-{3-[1-(cyclopropylacetyl)piperidin-4-yl]-1-methyl-1H-indol-5-yl}pyridine-2-carboxamide]
11 | 100 | COCC(=O)N1CCC(c2cn(C)c3ccc(NC(=O)c4cc(C#N)ccn4)cc23)CC1 [Example 34, 4-cyano-N-{3-[1-(methoxyacetyl)piperidin-4-yl]-1-methyl-1H-indol-5-yl}pyridine-2-carboxamide]
12 | 21.6 | Cn1cc(C2CCN(C(=O)CC(F)(F)F)CC2)c2cc(NC(=O)c3cc(C#N)ccn3)ccc21 [Example 35, 4-cyano-N-{1-methyl-3-[1-(3,3,3-trifluoropropanoyl)piperidin-4-yl]-1H-indol-5-yl}pyridine-2-carboxamide]

Continued, molecule first:

Row | Compound | IC50 [nM]
13 | Cn1cc(C2CCN(C(=O)[C@H]3CCC[C@H]3O)CC2)c2cc(NC(=O)c3cc(C#N)ccn3)ccc21 (relative stereo) [Example 13, 4-cyano-N-[3-(1-{[(1S*,2R*)-2-hydroxycyclopentyl]carbonyl}piperidin-4-yl)-1-methyl-1 2-carboxamide] | 19.8
14 | Cn1cc(C2CCN(C(=O)C3CCC(F)(F)C3)CC2)c2cc(NC(=O)c3cc(C#N)ccn3)ccc21 (stereo not shown) [Example 8, 4-cyano-N-(3-{1-[(3,3-difluorocyclopentyl)carbonyl]piperidin-4-yl}-1-methyl-1H-indol-5-yl)pyridine-2-carboxamide] | 7.3
15 | Cn1cc(C2CCN(C(=O)C3CC(F)(F)C3)CC2)c2cc(NC(=O)c3cc(C#N)ccn3)ccc21 [Example 9, 4-cyano-N-(3-{1-[(3,3-difluorocyclobutyl)carbonyl]piperidin-4-yl}-1-methyl-1H-indol-5-yl)pyridine-2-carboxamide] | 8.7
16 | Cc1cc(C(=O)N2CCC(c3cn(C)c4ccc(NC(=O)c5cc(C#N)ccn5)cc34)CC2)no1 [Example 10, 4-cyano-N-(1-methyl-3-{1-[(5-methylisoxazol-3-yl)carbonyl]piperidin-4-yl}-1H-indol-5-yl)pyridine-2-carboxamide] | 42.9
17 | Cn1cc(C2CCN(C(=O)CC3CCOCC3)CC2)c2cc(NC(=O)c3cc(C#N)ccn3)ccc21 [Example 12, 4-cyano-N-{1-methyl-3-[1-(tetrahydro-2H-pyran-4-ylacetyl)piperidin-4-yl]-1H-indol-5-yl}pyridine-2-carboxamide] | 24.3
18 | Cn1cc(C2CCN(C(=O)C3CCCOC3)CC2)c2cc(NC(=O)c3cc(C#N)ccn3)ccc21 (stereo not shown) [Example 15, 4-cyano-N-{1-methyl-3-[1-(tetrahydro-2H-pyran-3-ylcarbonyl)piperidin-4-yl]-1H-indol-5-yl}pyridine-2-carboxamide] | 15.9
19 | CNc1ncccc1C(=O)N1CCC(c2cn(C)c3ccc(NC(=O)c4cc(C#N)ccn4)cc23)CC1 [Example 16, 4-cyano-N-[1-methyl-3-(1-{[2-(methylamino)pyridin-3-yl]carbonyl}piperidin-4-yl)-1H-indol-5-yl]pyridine-2-carboxamide] | 132
20 | Cn1cc(C2CCN(C(=O)c3cscn3)CC2)c2cc(NC(=O)c3cc(C#N)ccn3)ccc21 [Example 18, 4-cyano-N-{1-methyl-3-[1-(1,3-thiazol-4-ylcarbonyl)piperidin-4-yl]-1H-indol-5-yl}pyridine-2-carboxamide] | 26.1
21 | Cn1cc(C2CCN(C(=O)C3CCOCC3)CC2)c2cc(NC(=O)c3cc(C#N)ccn3)ccc21 [Example 19, 4-cyano-N-{1-methyl-3-[1-(tetrahydro-2H-pyran-4-ylcarbonyl)piperidin-4-yl]-1H-indol-5-yl}pyridine-2-carboxamide] | 40.6
22 | Cn1cc(C2CCN(C(=O)c3ccncn3)CC2)c2cc(NC(=O)c3cc(C#N)ccn3)ccc21 [Example 20, 4-cyano-N-{1-methyl-3-[1-(pyrimidin-4-ylcarbonyl)piperidin-4-yl]-1H-indol-5-yl}pyridine-2-carboxamide] | 246
23 | Cn1cc(C2CCN(C(=O)c3ncccn3)CC2)c2cc(NC(=O)c3cc(C#N)ccn3)ccc21 [Example 24, 4-cyano-N-{1-methyl-3-[1-(pyrimidin-2-ylcarbonyl)piperidin-4-yl]-1H-indol-5-yl}pyridine-2-carboxamide] | 246
24 | Cn1cc(C2CCN(C(=O)C3CCCO3)CC2)c2cc(NC(=O)c3cc(C#N)ccn3)ccc21 (stereo not shown) [Example 25, 4-cyano-N-{1-methyl-3-[1-(tetrahydrofuran-2-ylcarbonyl)piperidin-4-yl]-1H-indol-5-yl}pyridine-2-carboxamide] | 31.6
25 | Cn1cc(C2CCN(C(=O)c3cnccn3)CC2)c2cc(NC(=O)c3cc(C#N)ccn3)ccc21 [Example 26, 4-cyano-N-{1-methyl-3-[1-(pyrazin-2-ylcarbonyl)piperidin-4-yl]-1H-indol-5-yl}pyridine-2-carboxamide] | 87
26 | Cn1cc(C2CCN(C(=O)[C@H]3CC[C@H](O)CC3)CC2)c2cc(NC(=O)c3cc(C#N)ccn3)ccc21 [Example 27, 4-cyano-N-(3-{1-[(trans-4-hydroxycyclohexyl)carbonyl]piperidin-4-yl}-1-methyl-1H-indol-5-yl)pyridine-2-carboxamide] | 1420
27 | Cn1cc(C2CCN(C(=O)[C@H]3CC[C@@H](O)CC3)CC2)c2cc(NC(=O)c3cc(C#N)ccn3)ccc21 [Example 29, 4-cyano-N-(3-{1-[(cis-4-hydroxycyclohexyl)carbonyl]piperidin-4-yl}-1-methyl-1H-indol-5-yl)pyridine-2-carboxamide] | 56.2
28 | Cn1cc(C2CCN(C(=O)CCC(F)(F)F)CC2)c2cc(NC(=O)c3cc(C#N)ccn3)ccc21 [Example 30, 4-cyano-N-{1-methyl-3-[1-(4,4,4-trifluorobutanoyl)piperidin-4-yl]-1H-indol-5-yl}pyridine-2-carboxamide] | 14.3
29 | Cn1cc(C2CCN(C(=O)C34CC(C3)C4)CC2)c2cc(NC(=O)c3cc(C#N)ccn3)ccc21 [Example 31, N-{3[1-(bicyclo[1.1.1]pent-1-ylcarbonyl)piperidin-4-yl]-1-methyl-1H-indol-5-yl}-4-cyanopyridine-2-carboxamide] | 121
30 | Cn1cc(C2CCN(C(=O)C3CC3(F)F)CC2)c2cc(NC(=O)c3cc(C#N)ccn3)ccc21 (stereo not shown) [Example 32, 4-cyano-N-(3-{1-[(2,2-difluorocyclopropyl)carbonyl]piperidin-4-yl}-1-methyl-1H-indol-5-yl)pyridine-2-carboxamide] | 35.5
31 | N#Cc1ccnc(C(=O)Nc2ccc3[nH]cc(C4CCN(C(=O)C5CCCC5)CC4)c3c2)c1 [Example 37, 4-cyano-N-(3-(1-(cyclopentanecarbonyl)piperidin-4-yl)-1H-indol-5-yl)picolinamide] | 34.1
